Where no end group is shown, it is not given here. The star is where a group is joined. For = O=C*
Test system: mast cell degranulation induced by Compound 48/80
Assay: Rat skin model: inhibition of Compound 48/80-induced mast cell degranulation (capillary permeability, trypan blue)
Type: in vivo
Settings: 0.15 μg Compound 48/80
Procedure: The Rat Skin Model for Determination of Inhibition of Mast Cell Degranulation
In this model, the blood plasma of the experimental rat is labeled with the dye trypan blue. This soluble dye is carried in the bloodstream as a passive marker of plasma itself, and is excluded from live cells. Intact blood vessels, including the capillary system, retain this dye under normal circumstances. A compound, which induces degranulation of mast cells (resulting in leukotriene and histamine release), is injected into the skin to simulate allergen-induced degranulation. In these experiments, Compound 48/80 was used for this purpose. In the events following leukotriene and histamine release, capillary permeability is increased, and plasma, dyed blue, leaks from capillaries and dyes the skin surrounding the injection site blue. The area of bluing is a measure of the amount of Compound 48/80 injected.
A compound can be tested for “anti-leukotriene” and/or “anti-histamine” activity by mixing it with Compound 48/80 prior to injection.
The rat skin model was undertaken and validated. Various peptides were tested at a predetermined dose for anti-leukotriene and/or anti-histamine activity. The dose selected allowed a general comparison to f-Met-Leu-Phe, which was standard compound for comparison.
A “dose response” titration was performed for some compounds and compared with the standard compound. Observing serial decreases in the size areas of capillary permeability using serially smaller doses of the putative inhibitory compound validates the inhibition of leukotriene and/or histamine release observed in the initial predetermined dose test.
Reagents were obtained from Sigma or Aldrich, with the exception of ketamine, a veterinary anaesthetic that was obtained from various veterinary suppliers. The rats used were male Sprague-Dawley breed, 220-240 g at time of purchase from B&K International.
For the rat skin reaction, rats were anaesthetized with 0.25 ml 10 mg/ml ketamine. 1.0 ml trypan blue in saline (sterile filtered) was administered in a tail vein, and the back of the rat was shaved. Four intradermal injection sites per rat were used for test and control injections.
Compound 48/80 was prepared as a 1.5 mg/ml stock solution in saline. […] Serial dilutions in saline to working levels were prepared just prior to injection of each rat.
Peptides were prepared as a 23 mM stock solution in DMSO, and stored at −20° C. between experiments. At the time of use, the frozen stock solutions were thawed, and appropriate aliquots added to dilutions of Compound 48/80, along with appropriate amounts of DMSO, to result in the ratio of 5 μl DMSO to 0.1 ml aqueous Compound 48/80.
For injections, 0.1 ml […], +1/− test compounds were injected intradermally into anaesthetized, dyed, and shaved rats. Following a 15 minute incubation, the rats were sacrificed by cervical dislocation and the back skin was evulsed and placed on a light box. An image of the backlit skin was digitized using a CCD video capture camera and compatible hardware/software. The digitized image was analyzed using a scientific graphics analysis software package, and the areas of capillary permeability (bluing) were integrated and digital values were obtained for further analysis.
A dose response curve was generated using Compound 48/80 at various doses from ca. 0.01 μg through ca. 15 μg. […] A dose of 0.15 μg of Compound 48/80 was selected for conducting further tests.
Several f-Met-Leu peptides were tested for inhibition of induced degranulation in the rat skin model using 100 nanomoles of the test peptide and a dose of 0.15 μg Compound 48/80. An intrinsic zero-peptide-dose 48/80 control was included in each rat for each experiment, and the % of inhibition was expressed in relative terms to this control (0% inhibition). The percent mast cell degranulation produced by 48/80 was also determined.

Question: “f-Met-Leu-Phe-Phe (For-MLFF) [Example 9]” was tested. Which “inhibition of induced degranulation compared with standard f-Met-Leu-Phe” value (dose response) did it give?
Answer: unexpectedly substantially better than that of the standard compound f-Met-Leu-Phe

Question: What about the “dose response, inhibition of degranulation induced by Compound 48/80” value (doses of 0 to about 230 nM peptide, FIG. 2 / FIG. 3) of the same substance?
Answer: Surprisingly remarkable inhibition of degranulation induced by Compound 48/80 was clearly shown

Question: And the “% Degranulation” value (percent mast cell degranulation produced by 48/80, 100 nanomoles peptide)?
Answer: 1-3%

Reference: patent US20030013658A1, “Small peptides and methods for treatment of asthma and inflammation” (Hisatek, LLC, priority 1997, published 2003)
